Assay results published in US12415774B2, “Polyol-based esters of hydroxycarboxylic acids” (KetoLipix Therapeutics GmbH, priority 2019, dated 2025).

System: pancreatin (Panzytrat 40,000)
Protocol: Both media are from the company Biorelevant®, Ltd. in Great Britain. In addition, in some experiments porcine pancreas is added (Panzytrat® 40,000, Fa. Allergan).
The pancreatin is used in the form of the commercially available product Panzytrat® 40,000 from the Allergan company. The whole mixture is stirred on a hot plate at 50° C.; the course of the reaction is determined and monitored by continuously recording the acid number over time.

| Substance | cleavage by pancreatin to the free 3-hydroxybutyric acid |
| --- | --- |
| 3-BHB-di-diglycerol ester | cleaved by pancreatin to the free 3-hydroxybutyric acid |
| 3-BHB-tri-diglycerol ester | cleaved by pancreatin to the free 3-hydroxybutyric acid |
| 3-BHB-mono-diglycerol ester | cleaved by pancreatin to the free 3-hydroxybutyric acid |
